pEC50: −log10 of the molar value. Blank lines part the entries; values can stand above or below the compound they belong to.
Tests used:
1321N1 astrocytoma cells = assay: Cytosolic free Ca2+ imaging (fura-2) in 1321N1 astrocytoma cells (FIGS. 7-9); type: cell-based
Procedure: Biological tests on 1321N1 astrocytoma cells were performed similarly to the tests on REF-52 cells (71). The concentration of Cytosolic free Ca^2+ (ordinate, in units of […]) in fura-2-loaded 1321N1 astrocytoma cells is shown as a function of time (abscissa, in units of seconds). At the dotted vertical line labeled 1, 20 μM inositol-1,4,5-triphosphate propionyloxymethyl ester (5a, R=Et, R'=H) was added. […] Subsequently the cells could respond to carbachol (200 μM, delivered at the dotted vertical line labeled 2), a drug that stimulates the endogenous generation of inositol-1,4,5-triphosphate. However, the response to carbachol is depressed by the prior treatment with the inositol-1,4,5-triphosphate propionyloxymethyl ester. Likewise the Ca^2+ response to thapsigargin (100 nM, delivered at the dotted vertical line labeled 3), another drug that releases stored Ca^2+, is depressed.
A test similar to the one shown in FIG. 7 was conducted except that the medium lacked extracellular Ca^2+ and a dose of 60 μM inositol-1,4,5-triphosphate propionyloxymethyl ester was added at the dotted vertical line labeled 1. […] Because no extracellular Ca^2+ was present, this response must have represented release from intracellular Ca^2+ stores. […] The much greater degree of inhibition of the carbachol response compared to the previous example (FIG. 7) is due to the higher dose of the inositol-1,4,5-triphosphate propionyloxymethyl ester and the absence of extracellular Ca^2+, which reduces refilling of Ca^2+ stores.
In a further example, the same test as set forth above was conducted with astrocytoma cells, except that 2 μM inositol-1,4,5-triphosphate butyryloxymethyl ester (5a, R=Pr, R'=H) was used instead of the propionyloxymethyl ester.

REF-52 fibroblasts = assay: Cytosolic free Ca2+ imaging (fura-2) in single REF-52 fibroblasts (FIG. 6); type: cell-based
Procedure: The best-established biological effect of IP3 is to release Ca^2+ from internal stores (26), so IP3 /PM (5a, R=Et, R'=H) was tested by imaging cytosolic free Ca^2+ levels in single REF-52 fibroblasts using standard methodology (58). Cells were loaded with the Ca^2+ -indicator fura-2 and viewed by fluorescence excitation ratioing. IP3 /PM (40 μM) was applied extracellularly while monitoring cytosolic Ca^2+ concentrations.

T84 cells = assay: cells; type: cell-based; conditions: for pEC50: Homo sapiens, T84, 0.2 h, ISC 12 min after addition, read-out: EC50 for Cl- secretion
Excerpt: A convenient test system is the intestinal cell line T84, in which chloride secretion can be continuously monitored by mounting confluent monolayers of cells in Ussing chambers (42).

[1] = target: cAMP-dependent protein kinase (PKA) (Bos taurus, UniProt P00514); assay: cell-based; type: cell-based
[2] = test system: angelfish (Pterophyllum scalare) melanophores; assay: Pigment dispersion in angelfish melanophores on isolated scales (FIG. 3); type: cell-based; conditions: for reversibility of dispersion (in words): removal of extracellular compound and epinephrine
Procedure: Melanophores permit a visual single-cell assay for the ability of cAMP analogs to enter cells and mimic cAMP actions. The melanophores were isolated on angelfish scales and the epidermis was stripped off. […] Dispersion was just detectable at 1 μM and half-maximal near 10 μM (FIG. 3A). […] The preceding examples are summarized in (64).

[3] = target: cAMP-dependent kinase type I (FICRhR) (Bos taurus, UniProt P00514); assay: biochemical
Excerpt: When PKA is doubly labeled with fluorescein on its catalytic subunits and rhodamine on its regulatory subunits to produce FICRhR, fluorescence energy transfer from the fluorescein to rhodamine occurs in the holoenzyme complex but is disrupted upon activation and dissociation of the subunits. The change in the ratio of fluorescein to rhodamine emissions parallels the increase in kinase activity and can be nondestructively imaged in single cells. REF-52 fibroblasts were microinjected with FICRhR and emission ratio images recorded at room temperature as previously described (27).

[4] = 20 μM, extracellular Ca2+ present, FIG. 7
[5] = 60 μM, no extracellular Ca2+, FIG. 8

Sequence of cAMP-dependent kinase type I (FICRhR) (P00514 whole entry): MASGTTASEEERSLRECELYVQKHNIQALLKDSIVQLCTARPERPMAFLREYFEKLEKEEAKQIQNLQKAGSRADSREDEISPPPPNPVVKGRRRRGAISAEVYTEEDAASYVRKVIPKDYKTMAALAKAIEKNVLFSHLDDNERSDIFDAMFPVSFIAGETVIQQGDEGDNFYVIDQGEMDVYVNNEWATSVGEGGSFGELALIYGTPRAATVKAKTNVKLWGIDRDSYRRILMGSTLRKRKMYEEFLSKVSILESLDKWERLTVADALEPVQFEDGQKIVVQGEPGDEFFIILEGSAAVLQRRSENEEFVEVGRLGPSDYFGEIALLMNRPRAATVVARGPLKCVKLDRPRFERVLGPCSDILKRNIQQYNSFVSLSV

Compound: CCC(=O)OCOP(=O)(OCOC(=O)CC)O[C@@H]1[C@H](O)[C@H](O)[C@@H](OP(=O)(OCOC(=O)CC)OCOC(=O)CC)[C@H](OP(=O)(OCOC(=O)CC)OCOC(=O)CC)[C@H]1O [IP3 /PM, D-myo-inositol-1,4,5-triphosphate propionyloxymethyl ester]
Ca2+ response to thapsigargin (100 nM) after treatment (in words) (1321N1 astrocytoma cells; [4]): depressed | delay of cytosolic Ca2+ elevation (1321N1 astrocytoma cells; [4]): about 100 second | elevation of cytosolic Ca2+ (in words) (1321N1 astrocytoma cells; [4]): sizable elevation of cytosolic Ca^2+ | response to carbachol (200 μM) after treatment (in words) (1321N1 astrocytoma cells; [4]): depressed | delay of cytosolic Ca2+ elevation (1321N1 astrocytoma cells; [5]): ~50 s | elevation of cytosolic Ca2+ (in words) (1321N1 astrocytoma cells; [5]): sizable elevation of cytosolic Ca^2+ | response to carbachol (200 μM) after treatment (in words) (1321N1 astrocytoma cells; [5]): greatly depressed | Ca2+ release from internal stores (in words) (1321N1 astrocytoma cells; summary, intact REF-52 fibroblasts and astrocytoma cells): released Ca^2+ from internal stores | cytosolic Ca2+ concentration after addition (in words) (REF-52 fibroblasts; 40 μM, extracellular): increased rapidly | effect of subsequent vasopressin (in words) (REF-52 fibroblasts; after 40 μM IP3/PM): much less effect than normal

Compound: CCCC(=O)Nc1ncnc2c1ncn2[C@@H]1O[C@@H]2COP(=O)(OCOC(C)=O)O[C@H]2[C@H]1OC(=O)CCC (some centres unmarked) [Bt2 cAMP/AM, N^6,O^2 '-Dibutyryl Adenosine 3',5'-cyclic Monophosphate Acetoxymethyl Ester]
time to maximum ISC (T84 cells; 3 μM, serosal bathing solution): 20 min | increase in potency by acetoxymethyl group (vs Bt2 cAMP) (T84 cells; Cl- secretion): 200 fold | pEC50 (T84 cells): 5.70 | kinetics of activation, ester vs Bt2 cAMP (in words) (T84 cells; T84 cells): essentially indistinguishable kinetics of activation | ISC response at other concentrations (in words) (T84 cells; relative to 3 μM): Higher concentrations of the derivative caused faster but not significantly greater responses, whereas lower concentrations reached lower maximum ISC values | time to maximal change in fluorescence ratio ([1]; 10 μM (highest dose), added extracellularly, room temperature): ≤ 15 min | activation at 1 µM ([1]; REF52, 1 μM (intermediate dose), read-out: plateau of fluorescence ratio change (% of the maximal change)): > 50% | onset of separation of regulatory and catalytic subunit of FICRhR after addition ([1]; extracellular addition): roughly 2 min | pigment dispersion (in words) ([2]; 100 μM, extracellular): essentially complete dispersal | reversibility of dispersion (in words) ([2]; 100 μM): easily reversed | onset of dispersion relative to 100 μM (in words) ([2]; 1 mM): slightly faster onset of action | reversibility of dispersion (in words) ([2]; 1 mM): could not be readily reversed | minimal effective concentration ([2]; Pterophyllum scalare, Melanophore, read-out: concentration at which dispersion was just detectable): 1 µM | pEC50 ([2]; Pterophyllum scalare, Melanophore, read-out: concentration for half-maximal dispersion): ~5.00 | increase in potency by AM ester group (vs Bt2 cAMP) ([2]; melanophore dispersion): more than 1000 | separation of the FICRhR subunits in vitro (in words) ([3]; 1 μM): no separation of the subunits | activation at 10 µM ([3]; 10 μM (printed)): 0%

Compound: CCCC(=O)Nc1ncnc2c1ncn2[C@@H]1O[C@@H]2COP(=O)(O)O[C@H]2[C@H]1OC(=O)CCC [Bt2 cAMP, N^6,O^2 '-dibutyryl cAMP, reference compound]
pEC50 (T84 cells): 3.40 | delay and time course of PKA activation relative to Bt2 cAMP/AM (in words) ([1]; 1 mM, FIG. 1 Graph B): Much the same delay and overall time course | concentration required for PKA activation ([1]; extracellular application): 1 mM | pigment dispersion (in words) ([2]; 1 mM): unable to cause any detectable dispersion | activation at 10 µM ([3]; 10 μM (printed)): 16% | potency relative to cAMP ([3]; in vitro, FICRhR): roughly 1/100 | activation at 10 µM ([3]; second Bt2 cAMP column, 10 μM printed): 61%

Compound: D-myo-inositol-1,4,5-triphosphate butyryloxymethyl ester [IP3 /BM]
potency relative to propionyloxymethyl ester (in words) (1321N1 astrocytoma cells; 2 μM, FIG. 9): somewhat more potent | rate of effects relative to propionyloxymethyl ester (in words) (1321N1 astrocytoma cells; 2 μM, FIG. 9): slower to appear and decay

Further lines, results first:

pEC50 (T84 cells): 2.82
Compound: Nc1ncnc2c1nc(Br)n2[C@@H]1O[C@@H]2COP(=O)(O)O[C@H]2[C@H]1O [Compound 8-Br-cAMP, 8-bromo-cAMP, reference compound]

pEC50 (T84 cells): 4.00
Compound: Nc1ncnc2c1nc(Sc1ccc(Cl)cc1)n2[C@@H]1O[C@@H]2COP(=O)(O)O[C@H]2[C@H]1O [Compound 8-pCPT-cAMP, 8-para-chlorophenylthio (cCPT) cAMP, reference compound]
